Several values for one entry are separate records, joined by “and”; a condition that tells them apart may be missing. Equal values may be shown once.
Experiment: Phase 1a single ascending dose study: UV-4 plasma concentrations and PK parameters (LC-MS/MS, noncompartmental)
Format: in vivo
Conditions: human plasma
Method: UV-4 ((2R,3R,4R,5S)-2-(hydroxymethyl)-1-(9-methoxynonyl)piperidine-3,4,5-triol, also called N-(9’-methoxynonyl)-1-deoxynojirimycin, or MON-DNJ) hydrochloride was evaluated in a first-in-human, randomized, single-center, double-blind, placebo-controlled, parallel group, single ascending dose Phase 1a clinical trial in healthy subjects (Figs 1 and 2, ClinicalTrials.gov Identifier NCT02061358 https://clinicaltrials.gov/ct2/show/NCT02061358). The primary objective was to determine the safety and tolerability of a single-ascending oral dose of UV-4 hydrochloride (Fig 3). […] The secondary objective was to determine PK parameters describing absorption and elimination of UV-4 following a single oral dose of UV-4 hydrochloride. Eight cohorts of eight subjects each were enrolled and completed the study. In each cohort, six subjects received UV-4 as the hydrochloride; two received placebo. Subjects were screened against study eligibility criteria up to four weeks (Days -28 to -2) before admission to the clinic (Day -1). Dosing was performed on an inpatient basis. Subjects remained in clinic for 48 hours post-dosing for PK sample collection and safety assessments and were discharged from the clinic on Day 3. Subjects returned to the clinic on Day 4 for additional safety assessments, then again on Day 9 ± 1 for a final follow-up visit.
Eligible subjects were healthy males and females, age 18–45 years, with a body mass index between 18 and 30 kg/m^2 inclusive and a minimum body weight of 60 kg. Subjects were considered healthy based on medical history, physical exam, vital signs, 12-lead electrocardiogram (ECG), clinical laboratory tests (hematology, blood chemistry, urinalysis), viral serology, and drug and alcohol screening. Male and female subjects of childbearing potential were required to use adequate contraception over the course of the clinical trial. […] Only subjects who met all inclusion and none of the exclusion criteria prior to administration of the investigational product were enrolled into the study (no exemptions were granted). A total of 64 subjects were enrolled (eight cohorts of eight subjects each). In each of the eight cohorts, six subjects were randomized to receive a single dose of UV-4 (3 to 1000 mg, depending on cohort) as the hydrochloride salt, and two subjects to receive placebo. Cohort size of six active subjects was based on analysis that increasing cohort size above six in a first-in-human study gains little in the ability to observe a drug induced event, and results in observing more events that are not related to study drug. Two of the eight subjects in each cohort (sentinel subjects; one active and one placebo) received their doses at least 48 h before the remaining subjects in each cohort.
On each day of use, bulk drug substance (UV-4B for solubilization, SAI Life Sciences Ltd. Telangana, India) was removed from a single-use container, weighed at the study center, and solubilized in 20 mL sterile water for injection (SWFI) (Hospira Inc. Illinois, United States of America). Weight of solid drug substance was converted to dose of UV-4 by applying purity and salt correction factor per pharmacy manual when preparing the dosing solution. UV-4B solution was administered orally with 10 mL of taste-masking agent, OraSweet-SF (Paddock Laboratories LLC, Minneapolis, United States of America) in a total volume of 30 mL, to assist in maintaining study blinding. Placebo was SWFI (20 mL) plus OraSweet-SF (10 mL). Concentrations and doses were calculated and expressed as the active free base form, UV-4. This methodology is consistent with USP<1121>, which recommends that the strength of a drug product or preparation is expressed in terms of the active moiety. Following consumption of active or placebo solution, the dosing container was rinsed with 50 mL of tap water also consumed by subjects. […]

**Q.** Which “CONCENTRATION UV4” value (Cohort 2, nominal day 1, nominal hour 0) does the source give for `COCCCCCCCCCN1C[C@H](O)[C@@H](O)[C@H](O)[C@H]1CO` [UV4] here?
**A.** <LLOQ (0.500) ng/mL

**Q.** What about the “CONCENTRATION UV4” value (Cohort 3, nominal day 1, nominal hour 0) of the same compound?
**A.** <LLOQ (0.500) ng/mL

**Q.** What about the “CONCENTRATION UV4” value (Cohort 4, nominal day 1, nominal hour 0) of the same compound?
**A.** <LLOQ (0.500) ng/mL

**Q.** And the “CONCENTRATION UV4” value (Cohort 4, nominal day 1, nominal hour 0, individual subjects)?
**A.** <LLOQ (0.500) ng/mL and 0.569 ng/mL and 1.02 ng/mL

**Q.** What about the “CONCENTRATION UV4” value (Cohort 4, nominal day 1, nominal hour 0, subjects with all post-dose samples <LLOQ (treatment arm not given)) of the same compound?
**A.** 0.657 ng/mL

**Q.** And the “CONCENTRATION UV4” value (Cohort 4, nominal day 1, nominal hour 0.5)?
**A.** <LLOQ (0.500) ng/mL

**Q.** And the “CONCENTRATION UV4” value (Cohort 4, nominal day 1, nominal hour 0.5, individual subjects)?
**A.** 439 ng/mL and 598 ng/mL and 942 ng/mL and 1250 ng/mL and 160 ng/mL

**Q.** What about the “CONCENTRATION UV4” value (Cohort 4, nominal day 1, nominal hour 0.5, subjects with all post-dose samples <LLOQ (treatment arm not given)) of the same compound?
**A.** <LLOQ (0.500) ng/mL

**Q.** What about the “CONCENTRATION UV4” value (Cohort 4, nominal day 1, nominal hour 1) of the same compound?
**A.** <LLOQ (0.500) ng/mL

**Q.** What about the “CONCENTRATION UV4” value (Cohort 4, nominal day 1, nominal hour 1, individual subjects) of the same compound?
**A.** 589 ng/mL and 571 ng/mL and 858 ng/mL and 762 ng/mL and 642 ng/mL

**Q.** What about the “CONCENTRATION UV4” value (Cohort 4, nominal day 1, nominal hour 1, subjects with all post-dose samples <LLOQ (treatment arm not given)) of the same compound?
**A.** <LLOQ (0.500) ng/mL

**Q.** And the “CONCENTRATION UV4” value (Cohort 4, nominal day 1, nominal hour 1.5)?
**A.** <LLOQ (0.500) ng/mL

**Q.** What about the “CONCENTRATION UV4” value (Cohort 4, nominal day 1, nominal hour 1.5, individual subjects) of the same compound?
**A.** 754 ng/mL and 487 ng/mL and 860 ng/mL and 621 ng/mL and 699 ng/mL

**Q.** And the “CONCENTRATION UV4” value (Cohort 4, nominal day 1, nominal hour 1.5, subjects with all post-dose samples <LLOQ (treatment arm not given))?
**A.** <LLOQ (0.500) ng/mL

**Q.** What about the “CONCENTRATION UV4” value (Cohort 4, nominal day 1, nominal hour 2) of the same compound?
**A.** <LLOQ (0.500) ng/mL

**Q.** What about the “CONCENTRATION UV4” value (Cohort 4, nominal day 1, nominal hour 2, individual subjects) of the same compound?
**A.** 583 ng/mL and 406 ng/mL and 636 ng/mL and 479 ng/mL and 610 ng/mL

**Q.** What about the “CONCENTRATION UV4” value (Cohort 4, nominal day 1, nominal hour 2, subjects with all post-dose samples <LLOQ (treatment arm not given)) of the same compound?
**A.** <LLOQ (0.500) ng/mL

**Q.** And the “CONCENTRATION UV4” value (Cohort 4, nominal day 1, nominal hour 2.5)?
**A.** <LLOQ (0.500) ng/mL

**Q.** And the “CONCENTRATION UV4” value (Cohort 4, nominal day 1, nominal hour 2.5, individual subjects)?
**A.** 516 ng/mL and 439 ng/mL and 447 ng/mL and 365 ng/mL and 519 ng/mL

**Q.** What about the “CONCENTRATION UV4” value (Cohort 4, nominal day 1, nominal hour 2.5, subjects with all post-dose samples <LLOQ (treatment arm not given)) of the same compound?
**A.** <LLOQ (0.500) ng/mL

**Q.** And the “CONCENTRATION UV4” value (Cohort 4, nominal day 1, nominal hour 3)?
**A.** <LLOQ (0.500) ng/mL

**Q.** And the “CONCENTRATION UV4” value (Cohort 4, nominal day 1, nominal hour 3, individual subjects)?
**A.** 495 ng/mL and 428 ng/mL and 393 ng/mL and 327 ng/mL and 437 ng/mL

**Q.** What about the “CONCENTRATION UV4” value (Cohort 4, nominal day 1, nominal hour 3, subjects with all post-dose samples <LLOQ (treatment arm not given)) of the same compound?
**A.** <LLOQ (0.500) ng/mL

**Q.** And the “CONCENTRATION UV4” value (Cohort 4, nominal day 1, nominal hour 4)?
**A.** <LLOQ (0.500) ng/mL

**Q.** And the “CONCENTRATION UV4” value (Cohort 4, nominal day 1, nominal hour 4, individual subjects)?
**A.** 368 ng/mL and 298 ng/mL and 302 ng/mL and 236 ng/mL and 338 ng/mL

**Q.** And the “CONCENTRATION UV4” value (Cohort 4, nominal day 1, nominal hour 4, subjects with all post-dose samples <LLOQ (treatment arm not given))?
**A.** <LLOQ (0.500) ng/mL

**Q.** And the “CONCENTRATION UV4” value (Cohort 4, nominal day 1, nominal hour 6)?
**A.** <LLOQ (0.500) ng/mL

**Q.** And the “CONCENTRATION UV4” value (Cohort 4, nominal day 1, nominal hour 6, individual subjects)?
**A.** 184 ng/mL and 187 ng/mL and 216 ng/mL and 141 ng/mL and 189 ng/mL

**Q.** What about the “CONCENTRATION UV4” value (Cohort 4, nominal day 1, nominal hour 6, subjects with all post-dose samples <LLOQ (treatment arm not given)) of the same compound?
**A.** <LLOQ (0.500) ng/mL

**Q.** What about the “CONCENTRATION UV4” value (Cohort 4, nominal day 1, nominal hour 9) of the same compound?
**A.** <LLOQ (0.500) ng/mL

**Q.** What about the “CONCENTRATION UV4” value (Cohort 4, nominal day 1, nominal hour 9, individual subjects) of the same compound?
**A.** 101 ng/mL and 118 ng/mL and 128 ng/mL and 70.4 ng/mL and 77.3 ng/mL

**Q.** What about the “CONCENTRATION UV4” value (Cohort 4, nominal day 1, nominal hour 9, subjects with all post-dose samples <LLOQ (treatment arm not given)) of the same compound?
**A.** <LLOQ (0.500) ng/mL

**Q.** What about the “CONCENTRATION UV4” value (Cohort 4, nominal day 1, nominal hour 12) of the same compound?
**A.** <LLOQ (0.500) ng/mL

**Q.** What about the “CONCENTRATION UV4” value (Cohort 4, nominal day 1, nominal hour 12, individual subjects) of the same compound?
**A.** 54.3 ng/mL and 66.4 ng/mL and 79.7 ng/mL and 42.1 ng/mL and 37.6 ng/mL

**Q.** What about the “CONCENTRATION UV4” value (Cohort 4, nominal day 1, nominal hour 12, subjects with all post-dose samples <LLOQ (treatment arm not given)) of the same compound?
**A.** <LLOQ (0.500) ng/mL

**Q.** And the “CONCENTRATION UV4” value (Cohort 4, nominal day 1, nominal hour 18)?
**A.** <LLOQ (0.500) ng/mL

**Q.** What about the “CONCENTRATION UV4” value (Cohort 4, nominal day 1, nominal hour 18, individual subjects) of the same compound?
**A.** 18.1 ng/mL and 34.0 ng/mL and 43.3 ng/mL and 16.6 ng/mL

**Q.** And the “CONCENTRATION UV4” value (Cohort 4, nominal day 1, nominal hour 18, subjects with all post-dose samples <LLOQ (treatment arm not given))?
**A.** <LLOQ (0.500) ng/mL

**Q.** And the “CONCENTRATION UV4” value (Cohort 4, nominal day 2, nominal hour 24, individual subjects)?
**A.** 12.5 ng/mL and 26.6 ng/mL and 30.8 ng/mL and 10.2 ng/mL

**Q.** And the “CONCENTRATION UV4” value (Cohort 4, nominal day 2, nominal hour 24, subjects with all post-dose samples <LLOQ (treatment arm not given))?
**A.** <LLOQ (0.500) ng/mL

**Q.** And the “CONCENTRATION UV4” value (Cohort 4, nominal day 2, nominal hour 36, individual subjects)?
**A.** 4.31 ng/mL and 11.5 ng/mL and 12.0 ng/mL and 3.22 ng/mL

**Q.** And the “CONCENTRATION UV4” value (Cohort 4, nominal day 2, nominal hour 36, subjects with all post-dose samples <LLOQ (treatment arm not given))?
**A.** <LLOQ (0.500) ng/mL

**Q.** What about the “CONCENTRATION UV4” value (Cohort 4, nominal day 3, nominal hour 48, individual subjects) of the same compound?
**A.** 2.04 ng/mL and 4.82 ng/mL and 6.34 ng/mL and 1.52 ng/mL

**Q.** What about the “CONCENTRATION UV4” value (Cohort 4, nominal day 3, nominal hour 48, subjects with all post-dose samples <LLOQ (treatment arm not given)) of the same compound?
**A.** <LLOQ (0.500) ng/mL
